{
  "source": "patent US20240197712A1",
  "about": "“TGF-BETA INHIBITION FOR IMMUNODEFICIENCY VIRUS REACTIVATION FROM LATENCY, ENHANCEMENT OF IMMUNODEFICIENCY VIRUS-SPECIFIC RESPONSES AND IMMUNODEFICIENCY VIRUS CURE” (Northwestern University, priority 2022, published 2024)",
  "key": {"pSMAD2/3": {"tested_on": "pSMAD2/3", "assay": "PhosphoSMAD2/3 over total SMAD2/3 in PBMC (ELISA)", "type": "in vivo, rhesus macaques", "conditions": "2.5 or 5 mg/kg twice daily, 9 days", "procedure": "Eight naïve macaques (FIG. 9) were used to collect plasma and PBMC for PK/PD studies. 4 macaques received galunisertib (2.5 mg/kg, n=2 or 5 mg/kg, n=2) once and blood was collected at 1 hr, 3 hr and 6 hrs, 24 hrs and 48 hrs. 4 macaques received galunisertib (2.5 mg/kg, n=2 or 5 mg/kg, n=2) twice daily for 9 days and samples were collected 1 hr, 3 hr and 8 hrs after administration on day 1 and on day 9 right before and 1 hr and 3 and 6 hrs after the last administration. Plasma concentrations of galunisertib were measured by IMSERC (Integrated Molecular Structure Education and Research Center) utilizing liquid chromatography mass spectrometry (Shimadzu Kyoto, Japan ultra-high performance liquid chromatography—UHPLC—system and SCIEX Framingham, MA Qtrap 6500+ triple quadrupole mass spectrometer). […] All samples and standards were processed in duplicate with the average area under the curve (AUC) being used for quantitation reporting. […] The resulting limit of quantitation (LOQ) was 1.0 ng/ml.\nFor PD studies, the levels of phosphorylated SMAD2/3 were measured using the PathScan PhospoSMAD2/3 ELISA kit (Cell Signaling Technology, CST) over the levels of Total SMAD2/3 in cell lysates Total SMAD ELISA Kit (Cell Signaling Technology, CST) normalized on protein content."}, "[1]": {"assay": "Clinical pathology (chemistry, hematology) and adverse events", "type": "in vivo, rhesus macaques", "procedure": "1 mL of blood was collected in EDTA tubes and tested for a standard hematology panel (complete blood count—CBC) using a BECKMAN COULTER DxH600 hematology analyzer. An additional 1 mL of blood was collected into a SST tube, centrifuged to isolate serum, and analyzed for a comprehensive serum chemistry panel using a Siemens's Dimension Clinical Chemistry Analyzer."}},
  "data": [
    {"compound": "Cc1cccc(-c2nn3c(c2-c2ccnc4ccc(C(N)=O)cc24)CCC3)n1", "note": "[galunisertib, Galunisertib]", "values": [
      {"measurement": "reduction in pSMAD2/3 over total SMAD in PBMC", "setting": "pSMAD2/3", "result": "~25", "unit": "%"},
      {"measurement": "clinical variables (chemistry and hematology)", "setting": "[1]; before, during and after therapy", "result": "No significant changes"},
      {"measurement": "adverse events", "setting": "[1]; macaque studies", "result": "no adverse events"}
    ]}
  ]
}
